Consider 33 compounds from patent US20260048047A1, “SMALL-MOLECULE ACTIVATORS OF MYCOBACTERIUM TUBERCULOSIS ADENYLYL CYCLASE” (priority 2022, published 2026).

Bounds are passed on as bounds.

One may read the EC50 as the midpoint of the concentration-response curve.

The subject of one assay is M. tuberculosis. The assay is described as follows: Extracellular activity against M. tuberculosis in cholesterol media (Alamar Blue reduction assay). The class given is cell-based, Mycobacterium tuberculosis. Particulars: Mycobacterium tuberculosis, 240 h, 7H12-Cholesterol media, 10 days; read-out: Cholesterol broth: alamar blue--EC50. Background: The colour change of resazurin is a common sign of viable cells or microbes.
Regarding `Cc1noc(CC(=O)N2CCC3(CC2)CC(c2nc(C4CCC(F)(F)CC4)no2)C3)n1` [Compound 227, 1-(2-(3-(4,4-difluorocyclohexyl)-1,2,4-oxadiazol-5-yl)-7-azaspiro[3.5]nonan-7-yl)-2-(3-methyl-1,2,4-oxadiazol-5-yl)ethan-1-one], the EC50 is more than 10 µM.

Turning to `Cc1noc(CC(=O)N2CCC3(CC2)CC(c2nc(-c4ccc(F)c(F)c4)no2)C3)n1` [Compound 228, 1-(2-(3-(3,4-difluorophenyl)-1,2,4-oxadiazol-5-yl)-7-azaspiro[3.5]nonan-7-yl)-2-(3-methyl-1,2,4-oxadiazol-5-yl)ethan-1-one], the EC50 is 0.294 µM.

Regarding `Cc1nonc1CC(=O)N1CCC2(CC1)CC(c1nc(C3CCCCC3)no1)C2` [Compound 229, 1-(2-(3-cyclohexyl-1,2,4-oxadiazol-5-yl)-7-azaspiro[3.5]nonan-7-yl)-2-(4-methyl-1,2,5-oxadiazol-3-yl)ethan-1-one], the EC50 was determined as 3.06 µM.

On to `Cc1nonc1CC(=O)N1CCC2(CC1)CC(c1nc(-c3ccc(Cl)c(Cl)c3)no1)C2` [Compound 230, 1-(2-(3-(3,4-dichlorophenyl)-1,2,4-oxadiazol-5-yl)-7-azaspiro[3.5]nonan-7-yl)-2-(4-methyl-1,2,5-oxadiazol-3-yl)ethan-1-one], for which the EC50 came out at 0.176 µM.

For `Cc1nonc1CC(=O)N1CCC2(CC1)CC(c1nc(C3CCC(F)(F)CC3)no1)C2` [Compound 231, 1-(2-(3-(4,4-difluorocyclohexyl)-1,2,4-oxadiazol-5-yl)-7-azaspiro[3.5]nonan-7-yl)-2-(4-methyl-1,2,5-oxadiazol-3-yl)ethan-1-one], the EC50 is more than 10 µM.

As to `Cc1nonc1CC(=O)N1CCC2(CC1)CC(c1nc(-c3ccc(F)c(F)c3)no1)C2` [Compound 232, 1-(2-(3-(3,4-difluorophenyl)-1,2,4-oxadiazol-5-yl)-7-azaspiro[3.5]nonan-7-yl)-2-(4-methyl-1,2,5-oxadiazol-3-yl)ethan-1-one], the EC50 amounted to 0.257 µM.

As to `Cc1nonc1CC(=O)N1CCC2(CC1)CC(c1nc(-c3ccc(F)cc3)no1)C2` [Compound 233, 1-(2-(3-(4-fluorophenyl)-1,2,4-oxadiazol-5-yl)-7-azaspiro[3.5]nonan-7-yl)-2-(4-methyl-1,2,5-oxadiazol-3-yl)ethan-1-one], the EC50 came to 0.45 µM.

Regarding `Cc1noc(CC(=O)N2CCN(c3nc(-c4ccc(Cl)c(Cl)c4)no3)CC2)n1` [Compound 234, 1-(4-(3-(3,4-dichlorophenyl)-1,2,4-oxadiazol-5-yl)piperazin-1-yl)-2-(3-methyl-1,2,4-oxadiazol-5-yl)ethan-1-one], the EC50 was more than 10 µM.

`Cc1nonc1CC(=O)N1CCN(c2nc(-c3ccc(Cl)c(Cl)c3)no2)CC1` [Compound 235, 1-(4-(3-(3,4-dichlorophenyl)-1,2,4-oxadiazol-5-yl)piperazin-1-yl)-2-(4-methyl-1,2,5-oxadiazol-3-yl)ethan-1-one]: the EC50 came out at 0.27 µM.

For the compound `Cc1nonc1CC(=O)N1CCN(c2nc(-c3ccc(F)cc3)no2)CC1` [Compound 236, 1-(4-(3-(4-fluorophenyl)-1,2,4-oxadiazol-5-yl)piperazin-1-yl)-2-(4-methyl-1,2,5-oxadiazol-3-yl)ethan-1-one], the EC50 is 0.649 µM.

As to `Cc1nonc1CC(=O)N1CCC2(CC1)CC2c1nc(-c2ccc(F)cc2)no1` (stereo not drawn) [Compound 237, 1-(1-(3-(4-fluorophenyl)-1,2,4-oxadiazol-5-yl)-6-azaspiro[2.5]octan-6-yl)-2-(4-methyl-1,2,5-oxadiazol-3-yl)ethan-1-one], the EC50 was more than 10 µM.

Take `Cc1noc(CC(=O)N2CCC3(CC2)CC3c2nc(-c3ccc(F)cc3)no2)n1` (stereo not drawn) [Compound 238, 1-(1-(3-(4-fluorophenyl)-1,2,4-oxadiazol-5-yl)-6-azaspiro[2.5]octan-6-yl)-2-(3-methyl-1,2,4-oxadiazol-5-yl)ethan-1-one]: the concentration giving a half-maximal response (EC50) is more than 10 µM.

For `Cc1noc(CC(=O)N2CCC3(CCC3c3nc(-c4ccc(Cl)c(Cl)c4)no3)CC2)n1` (stereo not drawn) [Compound 239, 1-(1-(3-(3,4-dichlorophenyl)-1,2,4-oxadiazol-5-yl)-7-azaspiro[3.5]nonan-7-yl)-2-(3-methyl-1,2,4-oxadiazol-5-yl)ethan-1-one], the EC50 was more than 25 µM.

With `Cc1noc(CC(=O)N2CCC3(CCC3c3nc(-c4ccc(F)cc4)no3)CC2)n1` (stereo not drawn) [Compound 240, 1-(1-(3-(4-fluorophenyl)-1,2,4-oxadiazol-5-yl)-7-azaspiro[3.5]nonan-7-yl)-2-(3-methyl-1,2,4-oxadiazol-5-yl)ethan-1-one], the EC50 was more than 10 µM.

Consider `Cc1nonc1CC(=O)N1CCC2(CCC2c2nc(-c3ccc(F)cc3)no2)CC1` (stereo not drawn) [Compound 241, 1-(1-(3-(4-fluorophenyl)-1,2,4-oxadiazol-5-yl)-7-azaspiro[3.5]nonan-7-yl)-2-(4-methyl-1,2,5-oxadiazol-3-yl)ethan-1-one], for which the EC50 is more than 10 µM.

In the case of `Cc1noc(CC(=O)N2CC3CC(C2)C3n2nnc(-c3ccc(F)cc3)n2)n1` (stereo not drawn) [Compound 242, 1-(6-(5-(4-fluorophenyl)-2H-tetrazol-2-yl)-3-azabicyclo[3.1.1]heptan-3-yl)-2-(3-methyl-1,2,4-oxadiazol-5-yl)ethan-1-one], the EC50 was more than 25 µM.

`Cc1nonc1CC(=O)N1CC2CC(C1)C2n1nnc(-c2ccc(F)cc2)n1` (stereo not drawn) [Compound 243, 1-(6-(5-(4-fluorophenyl)-2H-tetrazol-2-yl)-3-azabicyclo[3.1.1]heptan-3-yl)-2-(4-methyl-1,2,5-oxadiazol-3-yl)ethan-1-one]: the EC50 is more than 10 µM.

`Cc1nonc1CC(=O)N1CCCC(n2cc(C(=O)N3CCOCC3)nn2)C1` (stereo not drawn) [Compound 244, 2-(4-methyl-1,2,5-oxadiazol-3-yl)-1-(3-(4-(morpholine-4-carbonyl)-1H-1,2,3-triazol-1-yl)piperidin-1-yl)ethan-1-one]: the EC50 was more than 10 µM.

In the case of `CCN(CC)C(=O)c1cn(C2CCCN(C(=O)Cc3nonc3C)C2)nn1` (stereo not drawn) [Compound 245, N,N-diethyl-1-(1-(2-(4-methyl-1,2,5-oxadiazol-3-yl)acetyl)piperidin-3-yl)-1H-1,2,3-triazole-4-carboxamide], the EC50 is more than 10 µM.

Regarding `Cc1nonc1CC(=O)N1CCCC(n2cc(C(=O)NCCO)nn2)C1` (stereo not drawn) [Compound 246, N-(2-hydroxyethyl)-1-(1-(2-(4-methyl-1,2,5-oxadiazol-3-yl)acetyl)piperidin-3-yl)-1H-1,2,3-triazole-4-carboxamide], the EC50 was more than 10 µM.

As for `Cc1nonc1CC(=O)N1CCC2(CC1)CC(n1nnc(-c3ccc(F)cc3)n1)C2` [Compound 247, 1-(2-(5-(4-fluorophenyl)-2H-tetrazol-2-yl)-7-azaspiro[3.5]nonan-7-yl)-2-(4-methyl-1,2,5-oxadiazol-3-yl)ethan-1-one], the EC50 turned out to be 1.25 µM.

As for `Cc1nonc1CC(=O)N1CCCC(n2nnc(-c3ccc(F)cc3)n2)C1` (stereo not drawn) [Compound 248, 1-(3-(5-(4-fluorophenyl)-2H-tetrazol-2-yl)piperidin-1-yl)-2-(4-methyl-1,2,5-oxadiazol-3-yl)ethan-1-one], the EC50 is more than 10 µM.

Consider `Cc1nonc1CC(=O)N1CC2CCC(C1)C2c1nc(-c2ccc(F)cc2)no1` (stereo not drawn) [Compound 249, 1-(8-(3-(4-fluorophenyl)-1,2,4-oxadiazol-5-yl)-3-azabicyclo[3.2.1]octan-3-yl)-2-(4-methyl-1,2,5-oxadiazol-3-yl)ethan-1-one], for which the EC50 was found to be 1.29 µM.

On to `Cc1nonc1CC(=O)N1CCN(c2ncn(-c3ccc(F)cc3)n2)CC1` [Compound 250, 1-(4-(1-(4-fluorophenyl)-1H-1,2,4-triazol-3-yl)piperazin-1-yl)-2-(4-methyl-1,2,5-oxadiazol-3-yl)ethan-1-one], for which the EC50 is more than 10 µM.

For the compound `Cc1nonc1NC(=O)C1CCC(c2nc(-c3ccc(F)cc3)no2)CC1` (stereo not drawn) [Compound 251, 4-(3-(4-fluorophenyl)-1,2,4-oxadiazol-5-yl)-N-(4-methyl-1,2,5-oxadiazol-3-yl)cyclohexane-1-carboxamide], the EC50 is more than 10 µM.

For `Cc1nonc1CC(=O)N1CCC(c2cnc(-c3ccc(F)cc3)nc2)CC1` [Compound 252, 1-(4-(2-(4-fluorophenyl)pyrimidin-5-yl)piperidin-1-yl)-2-(4-methyl-1,2,5-oxadiazol-3-yl)ethan-1-one], the EC50 worked out at 2.91 µM.

`Cc1nonc1CC(=O)N1CCC(c2ncc(-c3ccc(F)cc3)cn2)CC1` [Compound 253, 1-(4-(5-(4-fluorophenyl)pyrimidin-2-yl)piperidin-1-yl)-2-(4-methyl-1,2,5-oxadiazol-3-yl)ethan-1-one]: the EC50 is more than 10 µM.

With `Cc1cccc(OC2CCN(C(=O)Cc3nonc3C)CC2)c1C` [Compound 254, 1-(4-(2,3-dimethylphenoxy)piperidin-1-yl)-2-(4-methyl-1,2,5-oxadiazol-3-yl)ethan-1-one], the EC50 is more than 10 µM.

For `Cc1nonc1CC(=O)N1CCC(c2ccc(-c3ccc(F)cc3)nn2)CC1` [Compound 255, 1-(4-(6-(4-fluorophenyl)pyridazin-3-yl)piperidin-1-yl)-2-(4-methyl-1,2,5-oxadiazol-3-yl)ethan-1-one], the EC50 was more than 10 µM.

As for `Cc1nonc1CC(=O)N1CCCC(c2nc(-c3ccc(F)cc3)no2)C1` (stereo not drawn) [Compound 256, 1-(3-(3-(4-fluorophenyl)-1,2,4-oxadiazol-5-yl)piperidin-1-yl)-2-(4-methyl-1,2,5-oxadiazol-3-yl)ethan-1-one], the EC50 was more than 10 µM.

`Cc1nonc1CC(=O)N1CC(c2nc(-c3ccc(F)cc3)no2)C1` [Compound 257, 1-(3-(3-(4-fluorophenyl)-1,2,4-oxadiazol-5-yl)azetidin-1-yl)-2-(4-methyl-1,2,5-oxadiazol-3-yl)ethan-1-one]: the EC50 is more than 10 µM.

`Cc1nonc1CC(=O)N1CCC2(CCC2n2nnc(-c3ccc(F)cc3)n2)CC1` (stereo not drawn) [Compound 258, 1-(1-(5-(4-fluorophenyl)-2H-tetrazol-2-yl)-7-azaspiro[3.5]nonan-7-yl)-2-(4-methyl-1,2,5-oxadiazol-3-yl)ethan-1-one]: the EC50 was more than 25 µM.

For a further assay, the system named is non-replicating M. tuberculosis. The assay is described as follows: Hu Coats 100-day old culture model. The settings on record: added to PB, 50 μM.
Take `CC(=O)NC[C@H]1CN(c2ccc(N3CCOCC3)c(F)c2)C(=O)O1` [LIN, Linezolid, reference compound]: the “CFU reduction versus PB” value is “superior CFU reduction”.
